“And” between values parts separate entries of the source, which are not always exact repeats. Identical values can stand only once.
Tests used:
Cavia porcellus [1] = organism: Cavia porcellus; assay: Effect on frequency rate of spontaneously beating atria from reserpine treated guinea pigs at the concentration of 5 x 10 e-4 M; assay type: functional
Cavia porcellus [2] = organism: Cavia porcellus; assay: Effect on contractile force of spontaneously beating atria from reserpine treated guinea pigs at the concentration of 5x 10 e-5 M; assay type: functional
Cavia porcellus [3] = organism: Cavia porcellus; assay: Effect on frequency rate of spontaneously beating atria from reserpine treated guinea pigs at the concentration of 10 e-4 M; assay type: functional
Cavia porcellus [4] = organism: Cavia porcellus; assay: Effect on contractile force of spontaneously beating atria from reserpine treated guinea pigs at the concentration of 10 e-4 M; assay type: functional
Cavia porcellus [5] = organism: Cavia porcellus; assay: Effect on contractile force of spontaneously beating atria from reserpine treated guinea pigs at the concentration of 2 x 10 e-3 M; assay type: functional
Cavia porcellus [6] = organism: Cavia porcellus; assay: Effect on contractile force of spontaneously beating atria from reserpine treated guinea pigs at the concentration of 5x 10 e-4 M; assay type: functional
Cavia porcellus [7] = organism: Cavia porcellus; assay: Effect on frequency rate of spontaneously beating atria from reserpine treated guinea pigs at the concentration of 2 x 10 e-3 M; assay type: functional
Cavia porcellus [8] = organism: Cavia porcellus; assay: Effect on frequency rate of spontaneously beating atria from reserpine treated guinea pigs at the concentration of 10 e-3 M; assay type: functional
Cavia porcellus [9] = organism: Cavia porcellus; assay: Effect on contractile force of spontaneously beating atria from reserpine treated guinea pigs at the concentration of 10 e-5 M; assay type: functional
Cavia porcellus [10] = organism: Cavia porcellus; assay: Effect on contractile force of spontaneously beating atria from reserpine treated guinea pigs at the concentration of 10 e-3 M; assay type: functional
Cavia porcellus [11] = organism: Cavia porcellus; assay: Effect on frequency rate of spontaneously beating atria from reserpine treated guinea pigs at the concentration of 10 e-5 M; assay type: functional
Cavia porcellus [12] = organism: Cavia porcellus; assay: Effect on contractile force of spontaneously beating atria from reserpine treated guinea pigs at the concentration of 5x 10 e-4 M (negative ionotropic effect); assay type: functional
Cavia porcellus [13] = organism: Cavia porcellus; assay: Effect on contractile force of spontaneously beating atria from reserpine treated guinea pigs at the concentration of 2 x 10 e-3 M (negative ionotropic effect); assay type: functional
Cavia porcellus [14] = organism: Cavia porcellus; assay: Effect on contractile force of spontaneously beating atria from reserpine treated guinea pigs at the concentration of 10 e-4 M (negative ionotropic effect); assay type: functional
Cavia porcellus [15] = organism: Cavia porcellus; assay: Effect on frequency rate of spontaneously beating atria from reserpine treated guinea pigs at the concentration of 5 x 10 e-5 M (negative chronotropic ionotropic effect)
Cavia porcellus [16] = organism: Cavia porcellus; assay: Effect on frequency rate of spontaneously beating atria from reserpine treated guinea pigs at the concentration of 10 e-4 M (negative chronotropic ionotropic effect); assay type: functional
Cavia porcellus [17] = organism: Cavia porcellus; assay: Effect on frequency rate of spontaneously beating atria from reserpine treated guinea pigs at the concentration of 10 e-3 M (negative chronotropic ionotropic effect); assay type: functional
Cavia porcellus [18] = organism: Cavia porcellus; assay: Effect on frequency rate of spontaneously beating atria from reserpine treated guinea pigs at the concentration of 2 x 10 e-3 M (negative chronotropic ionotropic effect); assay type: functional
Cavia porcellus [19] = organism: Cavia porcellus; assay: Effect on frequency rate of spontaneously beating atria from reserpine treated guinea pigs at the concentration of 5 x 10 e-4 M (negative chronotropic ionotropic effect); assay type: functional
Cavia porcellus [20] = organism: Cavia porcellus; assay: Effect on contractile force of spontaneously beating atria from reserpine treated guinea pigs at the concentration of 10 e-3 M (negative ionotropic effect); assay type: functional

| SMILES | Increase (Cavia porcellus [1]) | Increase (Cavia porcellus [2]) | Increase (Cavia porcellus [3]) | Increase (Cavia porcellus [4]) | Increase (Cavia porcellus [5]) | Increase (Cavia porcellus [6]) | Increase (Cavia porcellus [7]) | Increase (Cavia porcellus [8]) | Increase (Cavia porcellus [9]) | Increase (Cavia porcellus [10]) | Increase (Cavia porcellus [11]) | Increase (Cavia porcellus [12]) | Increase (Cavia porcellus [13]) | Increase (Cavia porcellus [14]) | Increase (Cavia porcellus [15]) | Increase (Cavia porcellus [16]) | Increase (Cavia porcellus [17]) | Increase (Cavia porcellus [18]) | Increase (Cavia porcellus [19]) | Increase (Cavia porcellus [20]) |
| --- | --- | --- | --- | --- | --- | --- | --- | --- | --- | --- | --- | --- | --- | --- | --- | --- | --- | --- | --- | --- |
| CC(=O)c1ccc(O)nc1C | 10.85% | 5.84% | 4.7% | 10.35% | 10.35% | 9.72% | 14.19% | 10.85% | 5.35% | 10.27% | 1.79% and 4.14% |  |  |  |  |  |  |  |  |  |
| CC(C)C(=O)c1cc(C(=O)O)c(O)nc1C(C)C | 23.17% | 3.21% | 6.01% |  |  |  | 11.35% | 16.19% | 3.46% | -82.26% | 0.58% and 0.75% | -49.63% | -99.99% | -8.88% |  |  |  |  |  |  |
| O=C1CC(c2ccccc2)Cc2nc(O)ccc21 (configuration not stated) | 8.85% | 4.52% | 5.61% | 1.2% | 3.44% | 1.46% | 14.52% | 12.61% | 2.28% | 1.73% | 2.19% |  |  |  | -3.42% |  |  |  |  |  |
| N#Cc1cc2c(nc1O)CCCC2=O |  | 7.87% |  | 16.12% | 13.01% | 25.67% |  |  | 2.59% | 23.3% | 3.02% |  |  |  | -3.08% | -6.06% | -0.57% | -0.79% | -3.85% |  |
| CC(=O)c1cc(C(=O)O)c(O)nc1C |  | 5.72% |  | 5.46% | 10.83% | 9.55% |  |  | 2.63% | 11.48% |  |  |  |  | -4.2% and -4.31% | -5.67% | -1.43% | -1.39% | -2.31% |  |
| O=C1CCCc2nc(O)ccc21 | 12.44% | 7.65% | 6.26% | 14.7% | 26.56% | 23.87% | 18.17% | 15.52% | 0.48% | 25.64% | 0% |  |  |  |  |  |  |  |  |  |
| CC(C)C(=O)c1ccc(O)nc1C(C)C | 20.8% | 11.69% |  | 16.38% |  |  | 32.13% | 26.33% | 5.34% |  |  | -9.42% | -44.47% |  | -3.28% and -5.14% | -0.99% |  |  |  | -26.37% |
| CC1CC(=O)c2cc(C(=O)O)c(O)nc2C1 (configuration not stated) | 6.53% | 3.78% | 3.58% | 4.57% | 11.38% | 8.53% | 10.36% | 7.38% | 2.55% | 8.37% | 1.5% and 2.78% |  |  |  |  |  |  |  |  |  |
| CC(C)C(=O)c1cc(C#N)c(O)nc1C(C)C | 18.85% | 11.62% | 9.64% | 1.42% |  |  | 16.27% | 22.83% | 8.22% |  | 2.33% and 5.14% | -34.43% | -86.43% |  |  |  |  |  |  | -67.64% |
| CC1(C)CC(=O)c2cc(C(=O)O)c(O)nc2C1 |  | 2.7% | 0.88% | 1.66% |  | -0.69% |  |  | 0.51% |  | 0.41% and 1.8% |  | -4.46% |  |  |  | -2.94% | -4.76% | -0.69% | -3.94% |

Reference: ChEMBL document CHEMBL1126775, “A pharmacological, crystallographic, and quantum chemical study of new inotropic agents” (J Med Chem, 1993)
